Data reported in US12637413B2, “Fatty acid amide hydrolase (FAAH) cleavable prodrugs of thyromimetics and combination with peripherally restricted FAAH inhibitors” (Autobahn Therapeutics, Inc., priority 2021, dated 2026).
Like-named read-outs stand apart in the source and are kept apart here.

Legend:
T4 = assay: plasma T4 (ELISA) after 7 days PO QD dosing; type: in vivo, Female C57BL/6 mice; conditions: Mus musculus; effects on plasma T4, PO QD 7 days, 4 or 8 h after last dose
Experimental: Female C57BL/6 mice (n=5/group), 6-8 weeks old, were acclimated to the study room for at least 3 days before dose administration in the studies. Mice were dosed at 5 mL/kg based on most recent body weight, collected once for the duration of the study. Based on most recent body weight, collected once for the duration of the study, mice were placed into weight-matched treatment dosing cohorts. Mice were given a single administration of PFI or vehicle orally (PO) daily (n=5/group) for 7 days at time=−1 hour. Following the PFI (100 μg/kg) or vehicle dose (10 mL/kg, p.o.), animals were given test article daily at time=0 hour. […] RNA from samples harvested 4 hours after final dose was quantified using a hybridization-based in situ RNA quantification method (NanoString, Seattle, WA), as described below. RNA from samples harvested 8 hours after final dose was quantified using a hybridization-based in situ RNA quantification method (QuantiGene Plex), as described below. […]
T4 was measured in terminal plasma samples using an ELISA kit (Biovision, Inc., Thyroxine [T4] [Mouse/Rat] ELISA Kit, Cat #: K7421-100). […] Absorbance was read at 450 nm within 15 min of addition of the Stop Solution using a Varioskan Lux plate reader (ThermoFisher Scientific, Carlsbad, CA). […] Unknown sample concentrations were determined using GraphPad Prism software (GraphPad Prism 9.0.2, GraphPad Software, San Diego, CA). […]

T3-regulated genes = assay: gene expression in brain and liver after 7 days PO QD dosing; type: in vivo, Female C57BL/6 mice; conditions: Mus musculus, PO QD 7 days, 4 or 8 h after last dose
Experimental: Female C57BL/6 mice (n=5/group), 6-8 weeks old, were acclimated to the study room for at least 3 days before dose administration in the studies. Mice were dosed at 5 mL/kg based on most recent body weight, collected once for the duration of the study. Based on most recent body weight, collected once for the duration of the study, mice were placed into weight-matched treatment dosing cohorts. Mice were given a single administration of PFI or vehicle orally (PO) daily (n=5/group) for 7 days at time=−1 hour. Following the PFI (100 μg/kg) or vehicle dose (10 mL/kg, p.o.), animals were given test article daily at time=0 hour. Test article administration one of eight dose levels (0.1, 0.3, 1, 3, 10, 30, 100 or 300 μg/kg) on Days 1-7 for a total of seven doses. Mice were dosed PO, QD for 7 days with (A) active metabolite or (B) prodrug alone; (C) prodrug+PFI (LL-650177) or (D) prodrug+GFI. […] RNA from samples harvested 4 hours after final dose was quantified using a hybridization-based in situ RNA quantification method (NanoString, Seattle, WA), as described below. RNA from samples harvested 8 hours after final dose was quantified using a hybridization-based in situ RNA quantification method (QuantiGene Plex), as described below. […]

Question: `CNC(=O)COc1cc(Cl)c(Cc2ccc(O)c(C(C)C)c2)c(Cl)c1` [Compound 1] was tested. Which ED50 (T4) did it give?
Answer: The ED50 was 3.4 µg/kg.

Question: What about the ED50 (T3-regulated genes; gene expression in brain, read-out: Brain (ED50 mg/kg)) of the same compound?
Answer: The ED50 was 0.044 mg/kg.

Question: What about the ED50 (T3-regulated genes; gene expression in liver, read-out: Liver (ED50 mg/kg)) of the same compound?
Answer: Its ED50 is 0.0025 mg/kg.
